In assay [1] the test system is SOURIS. The experiment in a line: Diuretic activity in the mouse (hourly urine volume, sodium and potassium assay). It counts as in vivo. The note with it: Mus musculus, po; S = SOURIS; diuretic activity; read-out: Dose minimale active. From the text:
d'urine sont déterminés toutes les heures. Le dosage de sodium et du potassium est effectué par spectrophotométrie.

The test system of assay [2] is rats mâles SHR (souche OKAMOTO). Put plainly: Antihypertensive action in the non-anaesthetised SHR rat (systolic blood pressure, sphygmomanometric method). It is filed as in vivo. The note with it: A = Aigu, 100 mg/kg PO, 24 h after dosing. From the text: L'étude a été effectuée sur des lots de rats mâles SHR (souche OKAMOTO) âgés de 16 semaines. La pression artérielle systolique est déterminée par la méthode sphygmomanométrique (électro sphygmogra- phe NARCO biosystems type PE 300). Les mesures de tension sont réalisées 24 heures après administration d'un composé de formule générale I, la pression artérielle systolique est calculée à partir de la moyenne de 6 à 8 mesures.

In assay [3] the target is T1, COTRANSPORT Na-K (Homo sapiens, UniProt P55011).
T1 construct: systèmes de transport du sodium et du potassium des érythrocytes humains; endogenous in cells; host or cells: human erythrocytes
T1 sequence (P55011 1-1212): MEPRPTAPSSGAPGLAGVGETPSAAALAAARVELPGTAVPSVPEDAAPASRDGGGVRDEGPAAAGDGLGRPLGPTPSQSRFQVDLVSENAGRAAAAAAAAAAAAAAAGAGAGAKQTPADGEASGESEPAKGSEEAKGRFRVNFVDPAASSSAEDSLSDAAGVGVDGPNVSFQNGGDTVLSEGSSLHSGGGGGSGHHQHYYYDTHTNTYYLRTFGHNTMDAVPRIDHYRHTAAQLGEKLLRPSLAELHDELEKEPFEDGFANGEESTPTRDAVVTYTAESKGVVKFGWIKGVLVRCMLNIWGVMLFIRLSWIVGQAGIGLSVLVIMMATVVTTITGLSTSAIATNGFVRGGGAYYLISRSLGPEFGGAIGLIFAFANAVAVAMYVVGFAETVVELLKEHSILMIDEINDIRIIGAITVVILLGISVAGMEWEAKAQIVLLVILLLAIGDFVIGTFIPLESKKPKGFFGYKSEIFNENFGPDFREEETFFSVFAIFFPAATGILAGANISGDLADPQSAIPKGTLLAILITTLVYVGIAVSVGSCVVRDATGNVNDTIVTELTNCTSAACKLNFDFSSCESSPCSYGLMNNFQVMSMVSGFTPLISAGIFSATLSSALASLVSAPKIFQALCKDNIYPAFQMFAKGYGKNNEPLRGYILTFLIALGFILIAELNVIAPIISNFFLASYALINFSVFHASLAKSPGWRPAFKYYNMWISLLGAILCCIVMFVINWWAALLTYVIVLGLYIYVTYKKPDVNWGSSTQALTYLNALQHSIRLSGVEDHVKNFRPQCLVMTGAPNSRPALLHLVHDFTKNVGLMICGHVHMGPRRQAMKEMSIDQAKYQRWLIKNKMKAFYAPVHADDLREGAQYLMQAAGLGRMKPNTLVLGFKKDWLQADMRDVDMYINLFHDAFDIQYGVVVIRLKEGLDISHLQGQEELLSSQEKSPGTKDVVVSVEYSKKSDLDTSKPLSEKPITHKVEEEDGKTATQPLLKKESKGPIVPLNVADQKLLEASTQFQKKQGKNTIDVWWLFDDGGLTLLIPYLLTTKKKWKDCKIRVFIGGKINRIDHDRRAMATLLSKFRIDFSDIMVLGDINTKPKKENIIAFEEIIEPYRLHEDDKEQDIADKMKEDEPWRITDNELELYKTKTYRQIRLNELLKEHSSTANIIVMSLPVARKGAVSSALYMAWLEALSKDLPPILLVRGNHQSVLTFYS
Put plainly: Na-K cotransport of human erythrocytes. It counts as cell-based, ERYTHROCYTES HUMAINS. Conditions: human erythrocytes; read-out: EFFET SUR LE COTRANSPORT Na-K IC 50. From the text:
Cet effet a été étudié selon la méthodologie décrite par G. GARAY et coll. dans Naunyn-Schmidberg's Arch. Pharmakol. […] Pharm.

Regarding `Cc1ccc(O)c(CCOc2ccccc2)c1` [ex 36], the minimal effective dose in assay [1] was determined as 100 mg/kg. Besides, the “Variation de l'effet anti-hyper-tenseur 24 heures après produit” value in assay [2] was “Non actif”. Besides, the IC50 in assay [3] was above 600 µM.

The values above are taken from EP0428423A2, “Aryloxy alkyl benzenes, processes for their preparation and pharmaceutical compositions containing them” (LIPHA S.A., priority 1989, dated 1991).
